Measurements taken from patent US20070112035A1, “Substituted oxyarenes” (BAYER CROPSCIENCE AKTIENGESELLSCHAFT, priority 2003, published 2007).
Read-outs that look alike come from different tables or passages of the source.

Assays:
[1] = test system: Heliothis armigera larvae; test: Heliothis armigera test (soy sprouts, immersion); assay type: in vivo; details: Helicoverpa armigera, 168 h, 100 ppm active substance, after 7 days
Protocol: (§1) Solvent: 7 Parts by weight of dimethylformamide
(§2) Emulsifier: 2 Parts by weight of alkyl-aryl polyglycol ether
(§3) For the production of a practical active agent preparation, one mixes 1 part by weight of active substance with the specified amount of solvent and emulsifier and dilutes the concentrate to the desired concentration with water containing an emulsifier.
Soy sprouts (Glycine max) are treated through immersion in the active substance preparation of the desired concentration and filled with Heliothis armigera larvae, while the leaves are still moist.
(§4) After the desired time the mortality in % is determined. In doing so, 100% means that all larvae were killed; 0% means that no larvae were killed.

[2] = test system: fall armyworm larvae (Spodoptera exigua); test: Spodoptera exigua test (cabbage leaves, immersion); assay type: in vivo
Protocol: as §1, §2, §3
Cabbage leaves (Brassica oleracea) are treated through immersion in the active substance preparation of the desired concentration and filled with fall armyworm larvae (Spodoptera exigua), while the leaves are still moist.
as §4

[3] = test system: fall armyworm larvae (Spodoptera frugiperda); test: Spodoptera frugiperda test (spray treatment); assay type: in vivo; details: 100 ppm active substance, maize leaf slices
Source text: Spodoptera frugiperda Test (Spray Treatment) Solvent: 78 Parts by weight of acetone • • 1.5 Parts by weight of dimethylformamide Emulsifier: 0.5 Parts by weight of alkyl-aryl polyglycol ether For the production of a practical active agent preparation, one mixes 1 part by weight of active substance with the specified amount of solvent and emulsifier and dilutes the concentrate to the desired concentration with water containing an emulsifier. Maize leaf slices (Zea mays) are sprayed with an active substance preparation of the desired concentration and filled with fall armyworm larvae (Spodoptera frugiperda) after drying. After the desired time the effect in % is determined. In doing so, 100% means that all larvae were killed; 0% means that no larvae were killed.

[4] = test system: cabbage moth larvae (Plutella xylostella); test: Plutella test (cabbage leaves, immersion); assay type: in vivo
Protocol: as §1, §2, §3
Cabbage leaves (Brassica oleracea) are treated through immersion in the active substance preparation of the desired concentration and filled with cabbage moth larvae (Plutella xylostella), while the leaves are still moist.
as §4

[5] = test system: Meloidogyne incognita egg/larvae suspension; test: Meloidogyne test (gall formation on lettuce); assay type: in vivo; details: 20 ppm active substance; nematicidal effect by gall formation, 100% = no galls
Source text: Meloidogyne Test Solvent: 7 Parts by weight of dimethylformamide Emulsifier: 2 Parts by weight of alkyl-aryl polyglycol ether For the production of a practical active agent preparation, one mixes 1 part by weight of active substance with the specified amount of solvent and emulsifier and dilutes the concentrate to the desired concentration with water. Vessels are filled with sand, active substance solution, Meloidogyne incognita egg/larvae suspension and lettuce seeds. The lettuce seeds germinate and the seedlings grow. The galls grow on the roots. After the desired time, the nematicidal effect is determined by means of gall formation in %. In doing so, 100% means that no galls were found; 0% means that the number of galls on the treated plants corresponds to the untreated control.

[6] = test system: common spider mite (Tetranychus urticae); test: Tetranychus test (OP-resistant/spray treatment); assay type: in vivo; details: 100 ppm active substance, spray treatment, bean leaf slices, OP-resistant
Source text: Tetranychus Test (OP-Resistant/Spray Treatment)
Solvent: 78 Parts by weight of acetone • • 1.5 Parts by weight of dimethylformamide
Emulsifier: 0.5 Parts by weight of alkyl-aryl polyglycol ether
as §3
Bean leaf slices (Phaseolus vulgaris) that are affected by all stages of the common spider mite (Tetranychus urticae) are sprayed with a active substance preparation of the desired concentration.
After the desired time the effect in % is determined. In doing so, 100% means that all spider mites were killed; 0% means that no spider mites were killed.

[7] = log P (physical data); assay type: physicochemical
[8] = 100 ppm active substance, after 7 days, cabbage leaves

SMILES	Effect in % after 7 days [3] [%]	Effect in % after 7 days [6] [%]	other results
COc1c(Cl)cc(OCC=C(Cl)Cl)cc1C1=NOC(CCCOc2ccc(C(F)(F)F)cn2)C1 (racemic) [Example I-1, (R/S)-3-(2-methoxy-3-chloro-5-(1,1-dichloro-1-propen-3-oxy)-phenyl)-5-((5-trifluormethylpyridin-2-yl)-3-(propyl)ether-1-yl)-Δ^2-isoxazoline]	100	100	mortality at 100 ppm [1]: 100%; mortality at 100 ppm ([2]; Spodoptera exigua, 168 h): 100%; mortality at 100 ppm ([4]; Plutella xylostella, 168 h): 100%; Effect in % after 14 days [5]: 80%
COc1c(Cl)cc(OCC=C(Cl)Cl)cc1C1=NOC(COc2ccc(C(F)(F)F)cn2)C1 (racemic) [Example I-5, (R/S)-3-(2-methoxy-3-chloro-5-(dichlorpropenoxy)phenyl)-5-((5-trifluormethylpyridin-2-yl)-2-(methyl)ether-1-yl)Δ^2-isoxazoline]	10	–	–
COc1c(Cl)cc(OCC=C(Cl)Cl)cc1C1=NOC(CCOc2ccc(OCC(F)(F)F)nc2)C1 (racemic) [Example I-6, (R/S)-3-(2-methoxy-3-chloro-5-(dichloropropenoxy)phenyl)-5-((6-trifluorethoxypyridin-3-yl)-2-(ethyl)ether-1-yl)Δ^2-isoxazoline]	100	–	mortality [2, 8]: 100%; mortality [4, 8]: 100%
COc1c(Cl)cc(OCC=C(Cl)Cl)cc1C1=NOC(CCCOc2ccc(OCC(F)(F)F)nc2)C1 (racemic) [Example I-7, (R/S)-3-(2-methoxy-3-chloro-5-(dichloropropenoxy)phenyl)-5-((6-trifluorethoxypyridin-3-yl)-3-(propyl)ether-1-yl)Δ^2-isoxazoline]	100	80	–
COc1c(Cl)cc(OCC=C(Cl)Cl)cc1C1=NOC(CCCCOc2ccc(C(F)(F)F)cn2)C1 (racemic) [Example I-10, (R/S)-3-(2-methoxy-3-chloro-5-(dichloropropenoxy)phenyl)-5-((5-trifluormethylpyridin-2-yl)-4-(butyl)ether-1-yl)Δ^2-isoxazoline]	100	80	–
COc1c(Cl)cc(OCC=C(Cl)Cl)cc1C1=NOC(CCOc2ccc(OCC(F)(F)F)nc2)C1 (racemic) [Example I-11, (R/S)-3-(2-methoxy-3-chloro-5-(dichloropropenoxy)phenyl)-5-((6-trifluorethoxypyridin-3-yl)-2-(ethyl)ether-1-yl)Δ^2-isoxazoline]	100	–	–
COc1c(Cl)cc(OCC=C(Cl)Cl)cc1-c1cc(CCOc2ccc(C(F)(F)F)cn2)on1 [Example I-9, 3-(2-methoxy-3-chloro-5-(dichloropropenoxy)phenyl)-5-((5-trifluormethylpyridin-2-yl)-2-(ethyl)ether-1-yl)isoxazole]	100	90	–
COc1ccc(OCC=C(Cl)Cl)cc1-c1noc(CCCOc2ccc(C(F)(F)F)cn2)n1 [Example I-127, 2-(3-{3-[5-(3,3-dichloro-allyloxy)-2-methoxy-phenyl]-[1,2,4]oxadiazol-5-yl}-propoxy)-5-trifluoromethyl-pyridine]	–	–	logP ([7]; neutral, read-out: log P (neutral)): 4.93
COc1c(Cl)cc(OCC=C(Cl)Cl)cc1-c1nc(CCCOc2ccc(C(F)(F)F)cn2)no1 [Example I-128, 2-(3-{5-[3-chloro-5-(3,3-dichloro-allyloxy)-2-methoxy-phenyl]-[1,2,4]oxadiazol-3-yl}-propoxy)-5-trifluoromethyl-pyridine]	–	–	logP ([7]; read-out: log P): 5.99
COc1c(Cl)cc(OCC=C(Cl)Cl)cc1C1=NC(CO)CO1 (centres unmarked) [{2-[3-chloro-5-(3,3-dichloro-allyloxy)-2-methoxy-phenyl]-4,5-dihydro-oxazol-4-yl}-methanol]	–	–	logP ([7]; pH=2.3, read-out: log P(pH=2.3)): 2.05
